Where two headings read alike, the source gives them in different places.
Tests used:
Format in all cases: cell-based
[1] = tested on: HCC panel comprising 39 cell lines; test: HCC panel in-vitro drug sensitivity test (Sulfo Rhodamine B), anticancer effect on cultured human cancer cell lines; conditions: for Delta / Range: HCC panel log GI50; for Delta: criterion ≧ 0.5; for Range: criterion ≧ 1.0; for evaluation as anticancer agent (criteria A-D: novelty, MG-MID, Delta/Range, COMPARE): HCC panel mean graph evaluation; for GI50: Homo sapiens
Description: The anticancer effect of each compound was determined by using the obtained concentration.
(§1) For the assay of anticancer effect, used was an HCC panel comprising 39 cell lines in total: 7 cell lines of lung cancer (Lu), 6 cell lines of stomach cancer (St), 5 cell lines of colon cancer (Co), 5 cell lines of ovarian cancer (Ov), 6 cell lines of brain tumor (CNS), 5 cell lines of breast cancer (Br), 2 cell lines of renal cancer (Re), 2 cell lines of prostate cancer (xPg) and 1 cell line of melanoma (Me). These were used as one panel, and an in-vitro drug sensitivity test was performed by using the above three compounds to obtain sensitivity patterns against each compound (mean graphs mentioned below). Further, the mean graphs obtained as the results of the above sensitivity test were compared with data in a database.
(§2) Specifically, the drug sensitivity test was performed according to the following procedures. The above 39 cancer cell lines were seeded to a 96-well plate and incubated overnight. On the following day, sample solutions each containing each of the above three compounds (5 doses, usually from 10^-4 M to 10^-8 M with 1 log intervals, the highest concentration is referred to as “High Conc”) were added to the above 96-well plate and cultured for further 2 days. Subsequently, the cell proliferation was calorimetrically determined in the obtained plate by using Sulfo Rhodamine B.
The obtained data of the measurement results are shown as mean graphs. Mean graphs (also referred to as fingerprints) visually expresses effective concentration deviations of a sample substance against individual cancer cell lines so that the sensitivity of each cancer cell line against the sample can be recognized at a glance. The mean graph is also referred to as fingerprint because it represents a pattern unique to each drug.
(§3) In the data analysis, GI50 (concentration at which cell proliferation is inhibited to 50% of a control) is obtained as a parameter for data analysis using the cell number immediately before exposure of cells to the test compound (Time Zero) as a standard. Specifically, the obtained data is used for the following calculation:
(§4) 1) If a mean optical density value at each concentration (OD test) is larger than the OD value at Time Zero (Tz), i.e., OD test >Tz, then percent growth (PG %)=((OD test−Tz)/(OD control−Tz))×100, wherein 1 OD control is the OD value of control. On the contrary, if OD test <Tz, then PG %=((OD test−Tz)/Tz)×100. In this case, PG % is a negative value.
(§5) 2) The above PG % values obtained for each cell line are plotted against concentrations (logarithm) according to the organ cancer type. The concentration at the point where each curve intersects with a horizontal line, provided at PG 50%, corresponds to log GI50.
3) Then, “mean graphs” are created. Mean log GI50 values are obtained for all of the assayed cell lines and referred to as mean graph midpoints (MG-MID). A difference between each of the mean values and the log GI50 value for each cell line is obtained (that is, GI50 for each cell line is represented as a logarithmic value of a multiple or an aliquot of the mean value). The resulting differences are depicted as bar charts extending a left or right side from the center line of mean log GI50 (scale 0) to obtain a mean graph. The higher differential sensitivity a cell line has, the longer the bar extends to the right. One scale corresponds to 1 log. The value of “Delta” provided at the bottom of the mean graph represents the difference between the value for the most sensitive cell line and the mean value. The value of “Range” provided below “Delta” represents the difference between the log GI50 values of the most sensitive cell line and the least sensitive one. […]

[2] = tested on: lung cancer (Lu) cell lines; test: HCC panel drug sensitivity test, lung cancer lines; conditions: Homo sapiens
Description: as §1, §2, §3, §4, §5

[3] = tested on: ovarian cancer (Ov) cell lines; test: HCC panel drug sensitivity test, ovarian cancer lines; conditions: Homo sapiens
Description: as §1, §2, §3, §4, §5

[4] = tested on: brain tumor (CNS) cell lines; test: HCC panel drug sensitivity test, brain tumor lines; conditions: Homo sapiens
Description: as §1, §2, §3, §4, §5

[5] = tested on: stomach cancer (St) cell lines; test: HCC panel drug sensitivity test, stomach cancer lines; conditions: Homo sapiens
Description: as §1, §2, §3, §4, §5

[6] = tested on: colon cancer (Co) cell lines; test: HCC panel drug sensitivity test, colon cancer lines; conditions: Homo sapiens
Description: as §1, §2, §3, §4, §5

[7] = tested on: breast cancer (Br) cell lines; test: HCC panel drug sensitivity test, breast cancer lines; conditions: Homo sapiens
Description: as §1, §2, §3, §4, §5

melanoma (Me) cell line = test: HCC panel drug sensitivity test, melanoma line; conditions: Homo sapiens; LOX-IMVI (Me)
Description: as §1
(§6) Specifically, the drug sensitivity test was performed according to the following procedures. The above 39 cancer cell lines were seeded to a 96-well plate and incubated overnight. On the following day, sample solutions each containing each of the above three compounds (5 doses, usually from 10^-4 M to 10^-8 M with 1 log intervals, the highest concentration is referred to as “High Conc”) were added to the above 96-well plate and cultured for further 2 days. Subsequently, the cell proliferation was calorimetrically determined in the obtained plate by using Sulfo Rhodamine B. […]

[8] = tested on: prostate cancer (xPg) cell lines; test: HCC panel drug sensitivity test, prostate cancer lines; conditions: Homo sapiens; DU-145 (xPg)
Description: as §1, §6

[9] = 48 h, logarithmic values of molar concentration, for many cancer cell lines of the HCC panel, cultured 2 days, Sulfo Rhodamine B, read-out: log GI50 (concentration at which cell proliferation is inhibited to 50% of the control) (converted)
[10] = mean over HCC panel, criterion <−5, read-out: MG-MID (log GI50) (converted)
[11] = DMS-114, DMS114 (Lu), read-out: log GI50 (converted)
[12] = DMS-273, DMS273 (Lu), read-out: log GI50 (converted)
[13] = A549 (Lu), read-out: log GI50 (converted)
[14] = NCI-H23 (Lu), read-out: log GI50 (converted)
[15] = NCI-H226 (Lu), read-out: log GI50 (converted)
[16] = NCI-H460 (Lu), read-out: log GI50 (converted)
[17] = NCI-H522 (Lu), read-out: log GI50 (converted)
[18] = OVCAR-3 (Ov), read-out: log GI50 (converted)
[19] = OVCAR-4 (Ov), read-out: log GI50 (converted)
[20] = OVCAR-5 (Ov), read-out: log GI50 (converted)
[21] = OVCAR-8 (Ov), read-out: log GI50 (converted)
[22] = SF-268 (CNS), read-out: log GI50 (converted)
[23] = SF-539 (CNS), read-out: log GI50 (converted)
[24] = SNB-75 (CNS), read-out: log GI50 (converted)

Row | GI50 [1, 9] | GI50 [1, 10] | GI50 [2, 11] | GI50 [2, 12] | GI50 [2, 13] | GI50 [2, 14] | GI50 [2, 15] | GI50 [2, 16] | GI50 [2, 17] | GI50 ([5]; MKN-1, MKN1 (St)) | GI50 ([5]; MKN-7, MKN7 (St)) | GI50 ([5]; MKN-28, MKN28 (St)) | GI50 ([5]; MKN-45, MKN45 (St)) | GI50 ([5]; St-4 (St)) | GI50 ([6]; HCC 2998, HCC2998 (Co)) | GI50 ([6]; HCT-116 (Co)) | GI50 ([6]; HT-29 (Co)) | Structure (SMILES) | Delta [1] | Range [1] | evaluation as anticancer agent (criteria A-D: novelty, MG-MID, Delta/Range, COMPARE) [1] | also measured
1 | – | – | – | – | – | – | – | – | – | – | – | – | – | – | – | – | – | CCNCCCCNCCCCCCCCNCCCCNCC [BET484, 1,18-bis(ethylamino)-5,14-diazaoctadecane] | 1.45 | 1.62 | the most interesting | GI50 ([1]; 48 h, read-out: log GI50 (concentration at which cell proliferation is inhibited to 50% of the control) (converted)): < 100 µM; GI50 ([1]; read-out: MG-MID (log GI50) (converted)): 67.6 µM; GI50 ([2]; A549, read-out: log GI50 (converted)): 16.2 µM; GI50 ([2]; DMS-273, read-out: log GI50 (converted)): 3.02 µM; GI50 ([3]; OVCAR-3, read-out: log GI50 (converted)): 20 µM; GI50 ([3]; OVCAR-4, read-out: log GI50 (converted)): 5.89 µM; GI50 ([3]; OVCAR-5, read-out: log GI50 (converted)): 72.4 µM; GI50 ([4]; read-out: log GI50, SF-539 (CNS) (converted)): 7.94 µM; GI50 ([4]; read-out: log GI50, SNB-75 (CNS) (converted)): 12.9 µM
2 | < 100 µM | 13.8 µM | 4.37 µM | 4.37 µM | 2.82 µM | 3.55 µM | 7.24 µM | 9.77 µM | 1.82 µM | 7.24 µM | 4.17 µM | 4.68 µM | 6.46 µM | 6.46 µM | 63.1 µM | 6.76 µM | 23.4 µM | C(CCCNCCCCNCC1CC1)CCNCCCCNCC1CC1 [BCPM464, 1,16-bis(cyclopropylmethylamino)-5,12-diazahexadecane] | 1.19 | 2.05 | the most interesting | GI50 [3, 18]: 3.02 µM; GI50 [3, 19]: 2.88 µM; GI50 [3, 20]: 4.37 µM; GI50 [3, 21]: 5.75 µM; GI50 [4, 22]: 87.1 µM; GI50 [4, 23]: 3.16 µM; GI50 [4, 24]: 3.31 µM; GI50 ([4]; U251 (CNS), read-out: log GI50 (converted)): 60.3 µM; GI50 ([7]; HBC4, HBC-4 (Br)): 6.92 µM; GI50 ([7]; HBC5, HBC-5 (Br)): 0.891 µM; GI50 ([7]; MCF7, MCF-7 (Br)): 13.8 µM; GI50 ([7]; BSY-1 (Br)): 3.55 µM; GI50 (melanoma (Me) cell line): 6.31 µM
3 | < 100 µM | 11.5 µM | 3.8 µM | 4.17 µM | 2.82 µM | 4.37 µM | 9.12 µM | 16.6 µM | 3.24 µM | 12 µM | 4.37 µM | 5.25 µM | 12 µM | 6.92 µM | 10.2 µM | 6.92 µM | 8.71 µM | C(CCCNCCCCNCC1CC1)CCCNCCCCNCC1CC1 [BCPM474] | 0.84 | 1.76 | the most interesting | GI50 ([5]; MKN-74, MKN74 (St)): 47.9 µM; GI50 ([6]; KM12, KM-12 (Co)): 28.2 µM; GI50 ([6]; HCT-15 (Co)): 37.2 µM; GI50 [3, 18]: 1.66 µM; GI50 [3, 19]: 4.17 µM; GI50 [3, 20]: 5.37 µM; GI50 [3, 21]: 2.75 µM; GI50 ([3]; SK-OV-3 (Ov), read-out: log GI50 (converted)): 5.75 µM; GI50 [4, 22]: 4.68 µM; GI50 ([4]; SF-295 (CNS), read-out: log GI50 (converted)): 8.71 µM; GI50 [4, 23]: 3.47 µM; GI50 [4, 24]: 3.63 µM; GI50 ([7]; HBC4, HBC-4 (Br)): 4.57 µM; GI50 ([7]; HBC5, HBC-5 (Br)): 2.24 µM; GI50 ([7]; MCF7, MCF-7 (Br)): 56.2 µM; GI50 ([7]; BSY-1 (Br)): 7.08 µM; GI50 [8]: 67.6 µM; GI50 (melanoma (Me) cell line): 30.9 µM

— patent US6605645B2, “Linear polyamine compounds and polyamine-based anti-tumor agents” (Riken, priority 1998, dated 2003)
